Test results taken from patent publication US20240279278A1, “NMU RECEPTOR 2 AGONISTS” (Boehringer Ingelheim International GmbH, priority 2023, published 2024).
Residues, ends and D or L forms follow the SMILES beside them.

Experiments:
human NMUR1 receptor = target: T1, human NMUR1 receptor (Homo sapiens, UniProt Q9HB89); test: IP1 Gq HTRF assay, activation of human NMUR1 in buffer; assay type: cell-based; settings: CHO-K1 cells expressing human NMUR1, stimulation buffer with 0.1% BSA; read-out: EC50 (hNMUR1) buffer
T1 construct: expressed in transfected cells; host or cells: CHO-K1
T1 sequence (Q9HB89 1-426): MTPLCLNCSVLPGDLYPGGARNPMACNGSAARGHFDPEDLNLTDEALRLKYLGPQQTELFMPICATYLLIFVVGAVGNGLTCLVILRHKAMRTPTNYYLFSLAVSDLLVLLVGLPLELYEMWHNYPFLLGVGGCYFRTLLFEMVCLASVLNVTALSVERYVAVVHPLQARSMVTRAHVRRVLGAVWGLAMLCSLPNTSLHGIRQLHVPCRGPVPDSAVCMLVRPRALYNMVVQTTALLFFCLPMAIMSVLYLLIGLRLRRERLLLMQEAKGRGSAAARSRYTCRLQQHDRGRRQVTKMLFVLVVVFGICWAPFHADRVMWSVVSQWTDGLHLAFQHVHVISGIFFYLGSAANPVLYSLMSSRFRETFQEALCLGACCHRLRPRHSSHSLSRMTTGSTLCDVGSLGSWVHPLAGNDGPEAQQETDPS
Summary of the method: (§1)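 IP-One HTRF competition (665/620 nm ratio) read after 1 h agonist exposure at 37 °C in pH 7.4 HEPES/HBSS stimulation buffer containing 50 mM LiCl, 0.1% BSA, 1% DMSO. Cells: CHO-K1 stably expressing human NMUR2 or NMUR1. EC50 by 4-parameter nonlinear regression of 8-point curves.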

human NMUR2 receptor [1] = target: T2, human NMUR2 receptor (Homo sapiens, UniProt Q9GZQ4); test: Radioligand binding competition assay (RLB), human NMUR2 receptor binding (SPA, [125I]-Neuromedin U-25); design: host or cells: CHO-K1; settings: CHO-K1 hNMUR2 cell membranes, 4 hours at RT
human NMUR2 receptor [2] = target: T2, human NMUR2 receptor; test: IP1 Gq HTRF assay, activation of human NMUR2 in buffer; assay type: cell-based; design: expressed in transfected cells; host or cells: CHO-K1; settings: CHO-K1 cells expressing human NMUR2, stimulation buffer with 0.1% BSA; read-out: EC50 (hNMUR2) buffer
Summary of the method: as §1

T2 sequence (Q9GZQ4 whole entry): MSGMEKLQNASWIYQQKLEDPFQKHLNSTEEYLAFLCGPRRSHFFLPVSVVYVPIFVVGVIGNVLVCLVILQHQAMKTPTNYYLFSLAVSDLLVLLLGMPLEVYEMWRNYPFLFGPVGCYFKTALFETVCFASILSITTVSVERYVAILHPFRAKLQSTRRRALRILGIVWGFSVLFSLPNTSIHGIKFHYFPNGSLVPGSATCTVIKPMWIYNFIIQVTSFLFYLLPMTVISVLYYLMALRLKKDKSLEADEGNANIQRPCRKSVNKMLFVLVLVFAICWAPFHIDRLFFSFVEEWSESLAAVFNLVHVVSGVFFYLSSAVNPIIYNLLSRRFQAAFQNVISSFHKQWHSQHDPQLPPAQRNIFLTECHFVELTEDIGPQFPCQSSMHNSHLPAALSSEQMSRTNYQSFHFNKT

Structure (SMILES) | EC50 (human NMUR1 receptor) [µM] | Ki (human NMUR2 receptor [1]) [µM] | EC50 (human NMUR2 receptor [2]) [µM]
CCCC[C@H](NC(=O)[C@H](CC(C)C)N(C)C(=O)[C@H](Cc1ccccc1)NC(=O)[C@H](Cc1ccc(O)cc1)NC(=O)CN1CCN(CCNC(=O)CN(C)C(=O)CN(C)C(=O)CN(C)C(=O)CN(C)C(=O)CN(C)C(=O)CN(C)C(=O)CN(C)C(=O)CN(C)C(=O)CN(C)C(=O)CN(C)C(=O)CN(C)C(=O)CN(C)C(=O)CN(C)C(=O)CN(C)C(=O)CN(C)C(=O)CC[C@H](NC(=O)CC[C@H](NC(=O)CC[C@H](NC(=O)CCCCCCCCCCCCCCCCCCC(=O)O)C(=O)O)C(=O)O)C(=O)O)CC1)C(=O)N[C@@H](CCN)C(=O)N(C)[C@@H](C)C(=O)N[C@@H](CCCNC(=N)N)C(=O)NCC(N)=O [Compound 43, C20DA-gGlu3-Sar15-AEPipAc-Tyr-Phe-NMeLeu-Nle-Dbu-NMeAla-Arg-Gly-NH2] (HELM PEPTIDE1{[O=C(O)CCCCCCCCCCCCCCCCCCC(=O)[*:2]].[gGlu].[gGlu].[gGlu].[Sar].[Sar].[Sar].[Sar].[Sar].[Sar].[Sar].[Sar].[Sar].[Sar].[Sar].[Sar].[Sar].[Sar].[Sar].[O=C(CN1CCN(CCN[*:1])CC1)[*:2]].Y.F.[meL].[Nle].[Dab].[meA].R.G.[am]}$$$$V2.0) | > 1 | 0.0326 | 0.0039
CCCC[C@H](NC(=O)[C@H](CC(C)C)N(C)C(=O)[C@H](Cc1ccccc1)NC(=O)[C@H](Cc1ccc(O)cc1)NC(=O)CN1CCN(CCNC(=O)CN(C)C(=O)CN(C)C(=O)CN(C)C(=O)CN(C)C(=O)CN(C)C(=O)CN(C)C(=O)CN(C)C(=O)CN(C)C(=O)CN(C)C(=O)CC[C@H](NC(=O)CC[C@H](NC(=O)CC[C@H](NC(=O)CCCCCCCCCCCCCCCCCCC(=O)O)C(=O)O)C(=O)O)C(=O)O)CC1)C(=O)N[C@@H](CCCNC(=N)N)C(=O)N1CCC[C@H]1C(=O)N[C@@H](CCCNC(=N)N)C(=O)NCC(N)=O [Compound 65, C20DA-gGlu3-Sar9-AEPipAc-Tyr-Phe-NMeLeu-Nle-Arg-Pro-Arg-Gly-NH2] (HELM PEPTIDE1{[O=C(O)CCCCCCCCCCCCCCCCCCC(=O)[*:2]].[gGlu].[gGlu].[gGlu].[Sar].[Sar].[Sar].[Sar].[Sar].[Sar].[Sar].[Sar].[Sar].[O=C(CN1CCN(CCN[*:1])CC1)[*:2]].Y.F.[meL].[Nle].R.P.R.G.[am]}$$$$V2.0) | 0.13 | 0.0253 | 0.0028
